Measured values taken from US5952307A, “Basic α-aminoalkylphosphonate derivatives” (priority 1997, dated 1999).

Assays:
Format in all cases: biochemical
[1] = biological target: T1, human granzyme A (Homo sapiens, UniProt P12544); test: Inactivation rate of human granzyme A, incubation method; settings: Table I; 0.1M Hepes, 0.01M CaCl2 pH 7.5, 25° C., 7.6% DMSO, substrate Z--Arg--SBzl
T1 sequence (P12544 29-262): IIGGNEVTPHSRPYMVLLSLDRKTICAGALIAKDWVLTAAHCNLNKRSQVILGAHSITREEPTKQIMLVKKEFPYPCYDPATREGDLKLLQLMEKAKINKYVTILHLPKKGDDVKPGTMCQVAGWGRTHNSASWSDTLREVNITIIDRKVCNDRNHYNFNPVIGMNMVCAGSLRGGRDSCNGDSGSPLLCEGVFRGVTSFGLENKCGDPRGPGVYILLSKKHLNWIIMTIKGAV
Method: (§1) Inactivation rates of serine proteases by aryl diesters of peptidyl derivatives of α-aminoalkylphosphonates were measured by the incubation method. An aliquot of inhibitor (25 or 50 μl) in Me2 SO was added to a buffered enzyme solution (0.01-2.3 μM) to initiate the inactivation. Aliquots (50 μl) were withdrawn at various intervals and the residual enzymatic activity was measured. Me2 SO concentration in the reaction mixture was 8-12% (v/v). A 0.1 M HEPES, 0.01 M CaCl2, pH 7.5 buffer was utilized for trypsin and trypsin-like enzymes. A 0.1 M HEPES, 0.5 M NaCl, pH 7.5, was utilized for the other serine proteases. Peptide thioesters or peptide nitroanilides with the appropriate sequences were used as substrates for various serine proteases. All peptide thioesters hydrolysis rates were measured with the assay mixture containing 4,4'-dithiodipyridine {ε324 =19800 M^-1 cm^-1; Grasetti & Murray, Arch. Biochem. Biophys. 1967, 119, 41-48}. Peptide 4-nitroanilide hydrolysis was measured at 410 nm {ε410 =8800 M^-1 cm^-1; Erlanger et al., Arch. Biochem. Biophys. 1961, 95, 271-278}. First order inactivation rate constants (Kobs) were obtained from plots of In vt /vo vs time, and the correlation coefficients were greater then 0.98.
(§2) ^a Inhibition constants were measured in 0.1M Hepes, 0.01M CaCl2
(§3) pH 7.5 for trypsin, granzymes A, and K, and in 0.1M Hepes, 10% glycerol,
(§4) 10 mM heparin, pH 7.5 for mast cell tryptase, and at 25° C. The
(§5) reaction mixtures contained 2% DMSO for trypsin, 7.6% for granzyme A, and
(§6) 7.1% for granzyme K and tryptase. The substrate was Z--Arg--SBzl for
(§7) granzymes and trypsin, and Z--Arg--SBzl or Z--Lys--SBzl for tryptase in
(§8) the presence of DTNB. The inhibitor # concentration ranged from 0.001 to
(§9) ^b NI, no inhibition after 25 min of incubation with enzyme.

[2] = biological target: T2, human thrombin (Homo sapiens, UniProt P00734); settings: Table II; 0.07 μM thrombin, 0.25-42 μM inhibitor, 80 mM Hepes pH 7.5, 428 mM NaCl, 8% DMSO, 25° C.; NI = no inhibition
T2 construct: bovine trypsin, human thrombin
Method: as §1, with “271-278}.” for “271-278}. First order inactivation rate constants (Kobs) were obtained from plots of In vt /vo vs time, and the correlation coefficients were greater then 0.98.”
(§10) ^a Enzyme was incubated with the inhibitor in 250 μL of the proper
(§11) buffer at 25° C. Specifically, the inhibition reation mixtures wer
(§12) Hepes, pH 7.5 buffer containing 1 mM CaCl2 and 8% DMSO; 0.07 μM
thrombin, 0.25-42 μM inhibitor in an 80 mM Hepes, pH 7.5 buffer
(§13) containing 428 mM NaCl and 8% DMSO; 0.07 μM tryptase, 20-66 μM
(§14) DMSO. Aliquots of 25 μL were withdrawn at various intervals and the
(§15) residual enzymatic activity was measured as described in experimental
(§16) section. The kobs values were calculated from pseudofirst-order
(§17) ^a Enzyme (0.06-0.5 μM) was incubated with the inhibitor (0.25-42
(§18) μM) in 250 μL of the proper buffer containing 9% DMSO at 25°
(§19) C. The final inhibition reaction mixtures are given in the footnote to
(§20) Table 1. Aliquots of 25 μL were withdrawn at various intervals and the […]

[3] = biological target: T3, rat granzyme K (Rattus norvegicus, UniProt P49864); test: Inactivation rate of rat granzyme K, incubation method; settings: Table I; 0.1M Hepes, 0.01M CaCl2 pH 7.5, 25° C., 7.1% DMSO, substrate Z--Arg--SBzl; NI = no inhibition after 25 min of incubation
T3 sequence (P49864 26-258): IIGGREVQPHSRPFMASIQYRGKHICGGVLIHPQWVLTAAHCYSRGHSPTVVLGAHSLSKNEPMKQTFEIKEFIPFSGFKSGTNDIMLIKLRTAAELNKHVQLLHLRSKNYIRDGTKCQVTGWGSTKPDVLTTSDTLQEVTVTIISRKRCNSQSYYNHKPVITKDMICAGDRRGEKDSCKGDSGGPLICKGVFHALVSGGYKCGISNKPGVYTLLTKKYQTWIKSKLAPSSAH
Method: as §1, §2, §3, §4, §5, §6, §7, §8, §9

[4] = biological target: T4, bovine trypsin (Bos taurus, UniProt P00760); test: Inactivation rate of bovine trypsin, incubation method; settings: for kobsd /[I] bovine trypsin: Table I, 0.1M Hepes, 0.01M CaCl2 pH 7.5, 25° C., 2% DMSO, substrate Z--Arg--SBzl, NI = no inhibition after 25 min; for kobs /[I] bovine trypsin: Table II, 0.13 μM trypsin, 0.25-42 μM inhibitor, 80 mM Hepes pH 7.5, 1 mM CaCl2, 8% DMSO, 25° C., NI = no inhibition
T4 sequence (P00760 24-246): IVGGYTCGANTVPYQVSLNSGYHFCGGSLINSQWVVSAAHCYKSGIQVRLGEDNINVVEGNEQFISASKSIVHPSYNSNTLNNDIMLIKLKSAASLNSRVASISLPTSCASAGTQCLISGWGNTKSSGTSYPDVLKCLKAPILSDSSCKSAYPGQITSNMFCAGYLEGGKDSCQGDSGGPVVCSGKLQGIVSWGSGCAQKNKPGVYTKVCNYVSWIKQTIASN
Method: as §1, §2, §3, §4, §5, §6, §7, §8, §9, §10, §11
composed of: 0.13 μM trypsin, 0.25-42 μM inhibitor in an 80 mM
as §12, §14, §15, §16, §17, §18, §19, §20

[5] = biological target: mast cell tryptase (Homo sapiens, UniProt Q15661); test: Inactivation rate of mast cell tryptase, incubation method; settings: for kobsd /[I] mast cell tryptase: 0.1M Hepes, 10% glycerol, 10 mM heparin, pH 7.5, 25° C., 7.1% DMSO, NI = no inhibition after 25 min of incubation; for kobs /[I] mast cell tryptase: 0.07 μM tryptase, 20-66 μM inhibitor, Hepes pH 7.5, heparin, 9% glycerol, 8% DMSO, 25° C., NI = no inhibition
Chain of mast cell tryptase (Q15661 31-275): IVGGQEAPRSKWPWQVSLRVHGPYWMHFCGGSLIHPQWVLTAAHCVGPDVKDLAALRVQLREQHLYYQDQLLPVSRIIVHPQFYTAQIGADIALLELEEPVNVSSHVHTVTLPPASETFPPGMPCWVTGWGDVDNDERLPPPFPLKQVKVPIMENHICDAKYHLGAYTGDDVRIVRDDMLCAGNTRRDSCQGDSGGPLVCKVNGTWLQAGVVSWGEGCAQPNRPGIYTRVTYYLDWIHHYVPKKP
Method: as §1, §2, §3, §4, §5, §6, §7, §8, §9, §10, §13
inhibitor # in an mM Hepes, pH 7.5 buffer containing 8 mM heparin, 166 m
NaCl, 0.8 mM Mes, 9% glycerol and 8% DMSO; 0.42 μM factor Xa, 66 μM
as §14, §15, §16, §17, §18, §19, §20

| Structure (SMILES) | kobsd /[I] human granzyme A [1] | kobs /[I] human thrombin [2] | kobsd /[I] rat granzyme K [3] | kobsd /[I] bovine trypsin [4] | kobs /[I] bovine trypsin [4] | kobsd /[I] mast cell tryptase ([5]; Table I) | kobs /[I] mast cell tryptase ([5]; Table II) | % Inh mast cell tryptase ([5]; Table I, printed in the kobsd/[I] column) | % Inh mast cell tryptase ([5]; Table II, printed in the kobs/[I] column) |
| --- | --- | --- | --- | --- | --- | --- | --- | --- | --- |
| CC(NC(=O)C(CC(=O)O)NC(=O)OCc1ccccc1)C(=O)NC(c1ccc(C(=N)N)cc1)P(=O)(Oc1ccccc1)Oc1ccccc1 (mixture of isomers) [Cbz--Asp--Ala-(4-AmPhGly)^P (OPh)2] | 240 ± 5 M⁻¹ s⁻¹ | 110 ± 12 M⁻¹ s⁻¹ | 6 M⁻¹ s⁻¹ | 2550 ± 145 M⁻¹ s⁻¹ | 2,550 ± 145 M^-1 s^-1 | 0.7 M⁻¹ s⁻¹ | – | – | – |
| CC(NC(=O)C(CCCCNC(=O)OC(C)(C)C)NC(=O)OCc1ccccc1)C(=O)NC(c1ccc(C(=N)N)cc1)P(=O)(Oc1ccccc1)Oc1ccccc1 (mixture of isomers) [Cbz--Lyz(Boc)--Ala-(4-AmPhGly)^P (OPh)2] | 110 ± 5 M⁻¹ s⁻¹ | 450 ± 58 M⁻¹ s⁻¹ | – | 3100 ± 177 M⁻¹ s⁻¹ | 3,100 ± 177 M^-1 s^-1 | 8.5 ± 0.4 M⁻¹ s⁻¹ | 8.7 ± 0.4 M⁻¹ s⁻¹ | – | – |
| CC(NC(=O)C(Cc1ccccc1)NC(=O)OCc1ccccc1)C(=O)NC(c1ccc(C(=N)N)cc1)P(=O)(Oc1ccccc1)Oc1ccccc1 (mixture of isomers) [Cbz--Phe--Ala-(4-AmPhGly)^P (OPh)2] | 1770 ± 13 M⁻¹ s⁻¹ | 1,150 ± 88 M^-1 s^-1 | 4.2 ± 0.3 M⁻¹ s⁻¹ | 3010 ± 318 M⁻¹ s⁻¹ | 3,010 ± 318 M^-1 s^-1 | 4 M⁻¹ s⁻¹ | 4.0 ± 0.3 M⁻¹ s⁻¹ | – | – |
| CC(C)C(NC(=O)OCc1ccccc1)C(=O)NC(c1ccc(C(=N)N)cc1)P(=O)(Oc1ccccc1)Oc1ccccc1 (mixture of isomers) [Cbz--Val-(4-AmPhGly)^P (OPh)2] | 6.7 ± 0.1 M⁻¹ s⁻¹ | 5.5 ± 0.4 M⁻¹ s⁻¹ | 0.7 ± 0.04 M⁻¹ s⁻¹ | 41 ± 3 M⁻¹ s⁻¹ | 18 ± 2 M⁻¹ s⁻¹ | 21.2 ± 0.2 M⁻¹ s⁻¹ | 21.2 ± 0.2 M⁻¹ s⁻¹ | – | – |
| N=C(N)c1ccc(C(NC(=O)C2CCCN2C(=O)CNS(=O)(=O)Cc2ccccc2)P(=O)(Oc2ccccc2)Oc2ccccc2)cc1 (mixture of isomers) [PhCH2 SO2 --Gly--Pro-(4-AmPhGly)^P (OPh)2] | 3650 ± 180 M⁻¹ s⁻¹ | 17,200 ± 128 M^-1 s^-1 | 87 M⁻¹ s⁻¹ | 37060 ± 986 M⁻¹ s⁻¹ | 37,060 ± 986 M^-1 s^-1 | 2 M⁻¹ s⁻¹ | 2.0 ± 0.1 M⁻¹ s⁻¹ | – | – |
| N=C(N)c1ccc(C(NC(=O)[C@@H]2CCCN2C(=O)CC(c2ccccc2)c2ccccc2)P(=O)(Oc2ccccc2)Oc2ccccc2)cc1 (some centres unmarked) [3,3-Diphenylpropanoyl-Pro-(4-AmPhGly)^P (OPh)2] | 250 ± 8 M⁻¹ s⁻¹ | 80,300 ± 368 M^-1 s^-1 | 1830 ± 140 M⁻¹ s⁻¹ | 2660 ± 40 M⁻¹ s⁻¹ | 2,660 ± 40 M^-1 s^-1 | – | – | – | – |
| N=C(N)c1ccc(C(NC(=O)C2CCCN2C(=O)CCc2ccccc2)P(=O)(Oc2ccccc2)Oc2ccccc2)cc1 (centres unmarked) [3-Phenylpropanoyl-Pro-(4-AmPhGly)^P (OPh)2] | 1510 ± 217 M⁻¹ s⁻¹ | 6,070 ± 68 M^-1 s^-1 | 50 ± 2 M⁻¹ s⁻¹ | 1520 ± 27 M⁻¹ s⁻¹ | 1,520 ± 27 M^-1 s^-1 | 0.4 M⁻¹ s⁻¹ | 0.4 M⁻¹ s⁻¹ | – | – |
| C[C@H](NC(=O)[C@H](CC(=O)OC(C)(C)C)NC(=O)OCc1ccccc1)C(=O)NC(c1ccc(C(=N)N)cc1)P(=O)(Oc1ccccc1)Oc1ccccc1 (some centres unmarked) [Cbz--Asp(O-t-Bu)--Ala-(4-AmPhGly)^P (OPh)2] | 280 ± 5 M⁻¹ s⁻¹ | 480 ± 93 M⁻¹ s⁻¹ | – | 2000 ± 24 M⁻¹ s⁻¹ | 2,000 ± 24 M^-1 s^-1 | 3 M⁻¹ s⁻¹ | 3 ± 0 M⁻¹ s⁻¹ | – | – |
| C[C@@H](O)[C@H](NC(=O)OCc1ccccc1)C(=O)NC(c1ccc(C(=N)N)cc1)P(=O)(Oc1ccccc1)Oc1ccccc1 (some centres unmarked) [Cbz--Thr-(4-AmPhGly)^P (OPh)2] | 2220 ± 40 M⁻¹ s⁻¹ | 61 ± 3 M⁻¹ s⁻¹ | 3 M⁻¹ s⁻¹ | 97 M⁻¹ s⁻¹ | 97 ± 2 M⁻¹ s⁻¹ | – | – | – | – |
| Cl.N=C(N)c1ccc(C(NC(=O)[C@@H]2CCCN2C(=O)c2cccc(Oc3ccccc3)c2)P(=O)(Oc2ccccc2)Oc2ccccc2)cc1 (some centres unmarked) [Diphenyl N-(N-(3-Phenoxybenzoylprolyl))amino(4-amidinophenyl)methanephosphonate Hydrochloride] | 330 ± 58 M⁻¹ s⁻¹ | 1,340 ± 225 M^-1 s^-1 | – | 4080 ± 32 M⁻¹ s⁻¹ | 4,080 ± 32 M^-1 s^-1 | – | – | 7% | 7% |
